These results are taken from paper PMC4413647, “Simultaneous targeting of androgen receptor (AR) and MAPK-interacting kinases (MNKs) by novel retinamides inhibits growth of human prostate cancer cell lines” (Oncotarget, 2014).

In general, GI50 refers to the concentration at which growth is held to half of that of the control.

In experiment [1] the test system is Bax, cleaved PARP-1. The experiment is described as follows: Western blot of Bax and cleaved PARP-1 in PCa cells. It counts as cell-based, human. The following applies: 20 μM, 24 h, among the lead NRs. As for the experimental part: Figure 4 Effect of NRs on cell cycle and apoptosis (A) LNCaP cells treated with 5 μM of NRs and other compounds for 24 h were stained with PI and analysed with a FACS calibur flow cytometer. (B) Total cell lysates from PCa cells treated with 20 μM of NRs were separated by SDS-PAGE and probed with cyclin D1 and B antibodies. […] (C) LNCaP cells were treated with indicated compounds (5 μmol/L) for 24 h and apoptosis induction was examined by oligonucleosomal fragmentation. Data are shown relative to vehicle treated control and the bars are means of three replicate determinations plus standard deviations. *, P< 0.01; ♣, P<0.05 compared with vehicle treated control. (D) PCa cells as indicated were seeded in 24 well plate, and treated with 5 μmol/L of NRs the subsequent day. After 24 h the plates were analyzed for apoptotic and viable cells using acridine orange/ethidium bromide staining. (E) Western blot analysis of apoptosis associated Bax and cPARP in PCa cells treated with NRs (20 μmol/L) for 24 h. (F) Apoptosis induction in LNCaP cells treated with 5 μmol/L of VNLG-147 and -152 in the presence or absence of ZVAD (5 μmol/L) was assessed by oligonucleosomal fragmentation after 24 h incubation. *, P< 0.05 compared with vehicle treated control. […]

The subject of experiment [2] is 22Rv1 cells. The experiment is described as follows: MTT cell proliferation assay, 7 d, 22Rv1. In kind it is cell-based. As to conditions: Homo sapiens, 22Rv1, 168 h, 7 d treatment. The text has this:
(§1) Androgen-dependent (LNCaP), androgen-independent (PC-3) and castration resistant (C4-2B and 22Rv1) human prostate carcinoma cells were procured from American Type Culture Collection, Manassas, VA, USA and maintained in RPMI 1640 media (Gibco-Life Technologies, Grand Island, NY, USA) supplemented with 10% fetal bovine serum and 1% penicillin/streptomycin. […] Immortalized untransformed prostate epithelial cells, PWR1E from American Type Culture Collection were maintained in serum-free Keratinocyte media (Gibco) supplemented with epidermal growth factor and bovine pituitary extract. All cell lines were maintained in a 37 °C/5% CO2 humidified atmosphere.
(§2) Cell proliferation assay was performed as described previously. For cell growth experiment, cells were treated with the NRs for 7 days. MTT assay was performed at the end of the experiment. Calculations of combination indices were done using the Calcusyn program (Biosoft, Cambridge, United Kingdom). For colony formation assay, cells were plated 1000 per well in complete media and allowed to adhere for 24 h. The next day cells were treated with indicated compounds (5 μM). After 24 h compound containing media were removed, and cells were allowed to form colonies in complete media. Approximately 2 weeks later the colonies were fixed, stained with 0.5% crystal violet (sigma) for 30 min and counted manually. Results represent the mean ± standard deviation of three independent experiments.
A general note: Formazan colour is commonly taken as a measure of viable cells.

For experiment [3], the system named is PCa cells. Briefly: MTT cell viability in PCa cells (LNCaP, PC-3, C4-2B, 22Rv1). As to conditions: Homo sapiens, range over PCa cell lines. It counts as cell-based, human. As for the experimental part: as §2
Experiment [4] concerns LNCaP cells. Briefly: MTT cell proliferation assay, 7 d, LNCaP. In kind it is cell-based, human. The following applies: 7 d treatment.
Excerpt: as §1, §2

Each structure is given as a SMILES string. Where two headings read alike, the source gives them in different places.

For `CC1=C(/C=C/C(C)=C/C=C/C(C)=C/C(=O)Nc2ccc(F)cc2)C(C)(C)CCC1n1ccnc1` (racemic) [VNLG-152], in experiment [1], the “efficacy in inducing PARP cleavage and/or increasing Bax expression” value is on record as “greater efficacies”. Also, the 50% growth inhibitory concentration (GI50) is 3230 nM in experiment [2]; 1500 to 5500 nM in experiment [3]; 2450 nM in experiment [4] (read-out: GI50 LNCaP); 2500 nM in experiment [4] (Homo sapiens, LNCaP, 168 h, read-out: GI50 LNCaP); 1860 nM in experiment [4] (Homo sapiens, LNCaP, 168 h, DHT induced, read-out: GI50 LNCaP, DHT induced).
